Reference: patent EP4631962A1, “PEPTIDE FOR CARTILAGE REGENERATION, AND USES THEREOF” (Caregen Co., Ltd., priority 2022, dated 2024)
Where a SMILES comes first, the peptide text is derived from it. Where no end group is shown, it is not given here.

Assays:
[1] = tested on: human-derived chondrocyte cells (C28/I2, human chondrocyte cell line); test: CCK-8 assay, cytotoxicity in chondrocytes; format: cell-based; details: different concentrations, after 3 days, FIG. 1 and FIG. 2
Procedure: (§1) The cytotoxicity of Peptide-1 or Peptide-2 upon addition to human-derived chondrocyte cells (C28/I2, human chondrocyte cell line) and human adipose-derived mesenchymal stem cells (AD-MSC) was analyzed using a CCK-8 assay.
Specifically, human-derived chondrocytes were seeded in a 96-well plate at a density of 3 × 10^3 cells/well and cultured in DMEM medium (cat. 11995-065, Gibco) for 24 hours.

[2] = tested on: human adipose-derived mesenchymal stem cells (AD-MSC); test: CCK-8 assay, cytotoxicity in AD-MSC; format: cell-based; details: different concentrations, after 7 days, FIG. 3
Procedure: as §1

Molecule	toxicity (CCK-8 activity) [1]	toxicity (CCK-8 activity) [2]
N[C@@H](CCC(=O)O)C(=O)N[C@@H](CC(=O)O)C(=O)N[C@@H](CC(=O)O)C(=O)O [Peptide-2, EDD] (H-Glu-Asp-Asp-OH)	did not exhibit toxicity	–
KRRRKRK [Peptide-1, KRRRKRK]	did not exhibit toxicity	did not exhibit toxicity
